Values joined by “and” are separate entries in the source; they are usually repeats but may differ in a detail not shown here. Equal entries are not always repeated. Where two headings read alike, the source gives them in different places.

For three molecules, IC50 results are on record in paper PMC12348107, “Saponins from Oxybasis rubra (L.) S.Fuentes, Uotila & Borsh: Comparative Assessment of Cytotoxic Potential Against a Wide Panel of Cancer Cell Lines” (Molecules, 2025).

A short description of series [1]: LDH cytotoxicity assay, HaCaT. It counts as cell-based, human. Particulars: human, HaCaT normal keratinocytes, HaCaT normal cells, LDH test, read-out: Cytotoxic activity expressed as IC50; for IC50 at 24 h: 24 h incubation; for IC50 at 48 h: 48 h incubation. The protocol: (§1) The cytotoxic activity was tested on human cancer and normal cell lines, grouped in several panels: skin (malignant melanoma HTB-140, malignant melanoma A375, melanoma WM793, and normal keratinocytes HaCaT), prostate (prostate carcinoma DU-145, prostate carcinoma PC3, and prostate epithelial cells PNT2), thyroid (thyroid carcinoma FTC133, thyroid carcinoma, undifferentiated 8505C), gastrointestinal panel (hepatocellular carcinoma HepG2, colon adenocarcinoma Caco-2, and colon adenocarcinoma HT29), and single line of lung carcinoma A549. Cells were grown at standard conditions (37 °C, 5% CO2, relative humidity) and culture media (DMEM/F12 for PNT2, WM793, HT29, A549; DMEM Low Glucose for DU-145; DMEM High Glucose for A375, HaCaT, A549; MEM with NEAA for Caco-2), supplemented with 10% fetal bovine serum (FBS) and 1% antibiotic solution (10,000 U penicillin and 10 mg streptomycin/mL). All cell lines, cell culture media, and supplements were from Merck (Seelze, Germany).
(§2) Before the experiment, cells were seeded onto 96-well plates for 24 h, at a density of 1.5 × 10^4 cells/ well. Then the tested compounds (5–100 μg/mL) were added and incubated for 24 and 48 h. Cell viability was measured with the lactate dehydrogenase (LDH) assay by Clontech (Clontech, Mountain View, CA, USA), as described previously. The absorbance was measured at 490 nm using a Biotek Synergy microplate reader (BioTek Instruments Inc., Winooski, VT, USA). Cell viability was expressed as a percentage of dead cells. Each experiment was conducted in triplicate. Doxorubicin was used as a reference cytostatic.
(§3) The results were expressed as mean (±SD). Data were analyzed using Statistica v.13.3 (StatSoft, Tulsa, OK, USA). The IC50 values were calculated using OriginPro 2020b (64-bit) 9.7.5.184 (Academic) (OriginLab Corporation, Northampton, MA, USA). One-way analysis of variance (ANOVA) and the post-hoc Tukey multiple comparison test were used. The statistical significance was defined at the probability level of p < 0.05. Principal component analysis (PCA) and hierarchical cluster analysis (HCA) were performed using Statistica v.13.3 (StatSoft, Tulsa, OK, USA). Prior to PCA, the Bartlett’s sphericity test was conducted, and the Kaiser-Meyer-Olkin Measure of Sampling Adequacy index (KMO) was examined. In the simple model, for each compound tested (1–4), the cell lines were the cases, and the different concentrations of the compound were the parameters. This was followed by a PCA model in which the cell lines were the parameters, and the compounds (at different concentrations) were the cases. All PCA models were based on a correlation matrix. Hierarchical cluster analysis (CA) based on standardized data was performed using Ward’s method and Euclidean distance. The results were grouped based on Mojena’s rule.

The subject of series [2] is DU-145 metastatic prostate carcinoma cells. Briefly: LDH cytotoxicity assay, DU-145. It counts as cell-based, human. Particulars: Homo sapiens, LDH test, read-out: Cytotoxic activity expressed as IC50. Here is the method: as §1, §2, §3
For series [3], the system named is A549 lung carcinoma cells. The series can be described thus: LDH cytotoxicity assay, A549. It counts as cell-based, human. To be noted: Homo sapiens, LDH test, read-out: Cytotoxic activity expressed as IC50. Here is the method: as §1, §2, §3
A short description of series [4]: LDH cytotoxicity assay, PNT2. Particulars: human, PNT2 prostate epithelial cells (normal), PNT2 normal cells, LDH test, read-out: Cytotoxic activity expressed as IC50; for IC50 at 24 h: 24 h incubation; for IC50 at 48 h: 48 h incubation. It counts as cell-based, human. The protocol:
as §1, §2, §3

Series [5] has as its system 8505C undifferentiated thyroid carcinoma cells. Briefly: LDH cytotoxicity assay, 8505C. It counts as cell-based. To be noted: Homo sapiens, LDH test, read-out: Cytotoxic activity expressed as IC50. Here is the method:
as §1, §2, §3

Series [6] deals with HT29 colon adenocarcinoma cells. The series can be described thus: LDH cytotoxicity assay, HT29. It counts as cell-based. Particulars: Homo sapiens, HT-29, LDH test, read-out: Cytotoxic activity expressed as IC50. The protocol: as §1, §2, §3
In series [7] the test system is HTB-140 malignant melanoma cells. The series can be described thus: LDH cytotoxicity assay, HTB-140. It counts as cell-based. To be noted: Homo sapiens, LDH test, read-out: Cytotoxic activity expressed as IC50. The protocol:
as §1, §2, §3

Series [8] relates to HepG2 hepatocellular carcinoma cells. The series can be described thus: LDH cytotoxicity assay, HepG2. It counts as cell-based. Particulars: Homo sapiens, LDH test, read-out: Cytotoxic activity expressed as IC50. Here is the method: as §1, §2, §3
The subject of series [9] is FTC133 follicular thyroid carcinoma cells. Briefly: LDH cytotoxicity assay, FTC133. It counts as cell-based. To be noted: Homo sapiens, FTC-133, LDH test, read-out: Cytotoxic activity expressed as IC50. Here is the method: as §1, §2, §3
The test system of series [10] is Caco-2 colon adenocarcinoma cells. The series can be described thus: LDH cytotoxicity assay, Caco-2. It counts as cell-based. To be noted: Homo sapiens, LDH test, read-out: Cytotoxic activity expressed as IC50. Here is the method: as §1, §2, §3
The subject of series [11] is WM793 primary melanoma cells. Briefly: LDH cytotoxicity assay, WM793. It counts as cell-based. To be noted: Homo sapiens, LDH test, read-out: Cytotoxic activity expressed as IC50. The protocol: as §1, §2, §3
Series [12] deals with PC3 metastatic prostate carcinoma cells. The series can be described thus: LDH cytotoxicity assay, PC3. It counts as cell-based. Particulars: Homo sapiens, LDH test, read-out: Cytotoxic activity expressed as IC50. The protocol: as §1, §2, §3
Series [13] has as its system A375 malignant melanoma cells. Briefly: LDH cytotoxicity assay, A375. Particulars: Homo sapiens, A-375, LDH test, read-out: Cytotoxic activity expressed as IC50. It counts as cell-based. Here is the method:
as §1, §2, §3

Where [14] appears, read: A549, 24 h, A549, 24 h incubation.
Where [15] appears, read: A549, 48 h, A549, 48 h incubation.

The IC50 is the concentration at which inhibition is half-maximal. As for `COc1cccc2c1C(=O)c1c(O)c3c(c(O)c1C2=O)C[C@@](O)(C(=O)CO)C[C@@H]3O[C@H]1C[C@H](N)[C@H](O)[C@H](C)O1` [DOX, doxorubicin], the IC50 at 24 h in series [1] was 7.75 µM and 4.21 µg/mL; in series [4], 2.01 µM and 1.09 µg/mL. The IC50 in [2] (DU-145, 24 h incubation) was 4.53 µM and 2.46 µg/mL; in [3] (setting [14]), 2.01 µM and 1.09 µg/mL; in [5] (24 h incubation) it was > 40 µg/mL; in [6] (HT29, 24 h incubation), 2.06 µM and 1.12 µg/mL; in series [7] (HTB-140, 24 h incubation) it was 9.03 µM and 4.91 µg/mL; in [8] (HepG2, 24 h incubation), 2.05 µM and 1.11 µg/mL. Besides, the IC50 in series [9] (FTC133, 24 h incubation) was 8.56 µM and 4.65 µg/mL; in series [10] (Caco-2, 24 h incubation), 5.43 µM and 2.95 µg/mL; in series [11] (WM793, 24 h incubation) it was > 40 µg/mL; in series [12] (PC3, 24 h incubation), > 40 µg/mL; in series [13] (A375, 24 h incubation), 790 nM and 0.43 µg/mL.

In the case of `CC1(C)CC[C@]2(C(=O)O[C@@H]3O[C@H](CO)[C@@H](O)[C@H](O)[C@H]3O)CC[C@]3(C)C(=CC[C@@H]4[C@@]5(C)CC[C@H](O)[C@@](C)(CO)[C@@H]5CC[C@]43C)[C@@H]2C1` [Compound 3, 28-O-β-D-glucopyranosyl hederagenin ester], the IC50 at 24 h in series [1] is 91.5 µM and 58.1 µg/mL; in [4], 84.8 µM and 53.8 µg/mL. Besides, the IC50 at 48 h in series [1] was 68.2 µM and 43.3 µg/mL; in series [4], 59.5 µM and 37.8 µg/mL. Moreover, the IC50 is 56.8 µM and 36.1 µg/mL in series [2] (DU-145, 24 h incubation); 42.6 µM and 27 µg/mL in series [2] (DU-145, 48 h incubation); 150 µM and 95.3 µg/mL in [3] (setting [14]); 73.2 µM and 46.5 µg/mL in series [3] (setting [15]); > 100 µg/mL in series [5] (24 h incubation); > 100 µg/mL in series [5] (48 h incubation). Also, the IC50 was 69.2 µM and 44 µg/mL in [6] (HT29, 24 h incubation); 60 µM and 38.1 µg/mL in series [6] (HT29, 48 h incubation); > 100 µg/mL in series [7] (HTB-140, 24 h incubation); 155 µM and 98.2 µg/mL in [7] (HTB-140, 48 h incubation); 127 µM and 80.5 µg/mL in series [8] (HepG2, 24 h incubation); 107 µM and 68 µg/mL in series [8] (HepG2, 48 h incubation). Further, the IC50 in series [9] (FTC133, 24 h incubation) is > 100 µg/mL; in [9] (FTC133, 48 h incubation), > 100 µg/mL; in [10] (Caco-2, 24 h incubation), 42.6 µM and 27 µg/mL; in series [10] (Caco-2, 48 h incubation) it was 38 µM and 24.2 µg/mL; in series [11] (WM793, 24 h incubation), > 100 µg/mL; in series [11] (WM793, 48 h incubation) it was > 100 µg/mL. The IC50 is > 100 µg/mL in series [12] (PC3, 24 h incubation); 118 µM and 74.8 µg/mL in series [12] (PC3, 48 h incubation); 73.5 µM and 46.7 µg/mL in series [13] (A375, 24 h incubation); 58 µM and 36.8 µg/mL in [13] (A375, 48 h incubation).

Regarding `CC1(C)CC[C@]2(C(=O)O)CC[C@]3(C)C(=CC[C@@H]4[C@@]5(C)CC[C@H](O)[C@@](C)(CO)[C@@H]5CC[C@]43C)[C@@H]2C1` [Compound 4, hederagenin], the IC50 at 24 h is > 100 µg/mL in series [1]; 195 µM and 92 µg/mL in series [4]. The IC50 at 48 h in [1] is > 100 µg/mL; in series [4], 159 µM and 75.1 µg/mL. Moreover, the IC50 in [2] (DU-145, 24 h incubation) is 109 µM and 51.5 µg/mL; in series [2] (DU-145, 48 h incubation), 42.9 µM and 20.3 µg/mL; in series [3] (setting [14]), > 100 µg/mL; in series [3] (setting [15]), 208 µM and 98.2 µg/mL; in series [5] (24 h incubation), > 100 µg/mL; in series [5] (48 h incubation) it was > 100 µg/mL. For the same molecule, the IC50 in series [6] (HT29, 24 h incubation) was > 100 µg/mL; in [6] (HT29, 48 h incubation) it was 191 µM and 90.3 µg/mL; in [7] (HTB-140, 24 h incubation), > 100 µg/mL; in series [7] (HTB-140, 48 h incubation) it was > 100 µg/mL; in [8] (HepG2, 24 h incubation) it was > 100 µg/mL; in series [8] (HepG2, 48 h incubation), > 100 µg/mL. Besides, the IC50 was > 100 µg/mL in series [9] (FTC133, 24 h incubation); > 100 µg/mL in [9] (FTC133, 48 h incubation); 191 µM and 90.1 µg/mL in series [10] (Caco-2, 24 h incubation); 158 µM and 74.9 µg/mL in series [10] (Caco-2, 48 h incubation); > 100 µg/mL in [11] (WM793, 24 h incubation); > 100 µg/mL in series [11] (WM793, 48 h incubation). The IC50 in series [12] (PC3, 24 h incubation) is > 100 µg/mL; in [12] (PC3, 48 h incubation), 164 µM and 77.7 µg/mL; in series [13] (A375, 24 h incubation), > 100 µg/mL; in series [13] (A375, 48 h incubation), > 100 µg/mL.
